Test results published in patent EP4603105A1, “PHARMACEUTICAL COMPOSITION CONTAINING CYCLIC COMPOUND HAVING SELECTIVE KRAS INHIBITORY EFFECT AGAINST HRAS AND NRAS” (CHUGAI SEIYAKU KABUSHIKI KAISHA, priority 2022, dated 2024).
*1 amine or outer side, *2 acyl side, *3 side chain or, on linkers, in order; H or OH if unused. Where a SMILES comes first, the peptide text is derived from it. Bridges are numbered along the chain shown (N, C = ends). [ ]: non-standard residue; d: D form. The star is where a group is joined. hPhe(3-Cl-4-CF3) = N[C@@H](CCc1ccc(C(F)(F)F)c(Cl)c1)C(=O)O; X1 = CCCCN([C@@H](Cc1ccc(C)cc1)C(=O)[*:2])[*:1]; NMeGly(cPent) = CN[C@H](C(=O)O)C1CCCC1; NMeD = CN[C@@H](CC(=O)O)C(=O)O; NMeL = CN[C@@H](CC(C)C)C(=O)O; Morpholide = C1CN(*)CCO1; NMeA = CN[C@@H](C)C(=O)O; Ac5c = NC1(C(=O)O)CCCC1; Aze = O=C(O)[C@@H]1CCN1; Sar = CNCC(=O)O

Assays:
[1] = target: GDP-bound NRAS wild-type protein (Homo sapiens, UniProt P01111); experiment: Binding to NRAS by surface plasmon resonance (SPR), KD and KD ratio to KRAS
Summary of the method: (§1)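 Single-cycle kinetics on GDP-loaded biotin-Avi RAS captured to ~100–300 RU; 75 s ascending injections, 100 µL/min, 30°C. HBS pH 7.4 + 10 mM MgCl2/10 µM GDP/4% DMSO. 1:1 fit, KD.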

[2] = target: GDP-bound KRAS wild-type protein (Homo sapiens, UniProt P01116); experiment: Binding to KRAS by surface plasmon resonance (SPR), dissociation constant KD
Experimental: Surface plasmon resonance was used to analyze the binding affinity of compounds for KRAS, NRAS, and HRAS. The apparatus used was Biacore 8K, 8K+, or T200 (GE Healthcare), and the running buffer used was HBS (10 mM HEPES-NaOH, 150 mM NaCl, pH 7.4) containing 1 mM DTT, 10 mM MgCl2, 0.01% Tween 20, 10 µM GDP, and 4% DMSO.
Biotinylated Avi-tag fusion KRAS, NRAS, and HRAS proteins were expressed in E. coli BL21 (DE3) strains, and after cells were homogenized, they were purified using Streptavidin Mutein Matrix and Superdex 75. After purification, GDP-loaded KRAS, NRAS, and HRAS proteins were immobilized on the surface of Sensor Chip CAP (Cytiva) coated with Biotin CAPture Reagent in an immobilization amount of about 100 to 300 RU. Binding of each compound was evaluated by the Single Cycle Kinetics method, and a running buffer or a compound solution was added to the RAS protein non-immobilized surface and the immobilized surface to obtain a binding response. The flow rate was set to 100 µL/min, and in the compound-adding cycle, compound solutions having different concentrations were intermittently added for 75 seconds each, starting from a low concentration. […] In the blank cycle, a running buffer was intermittently added and not the compound solution. The Biotin CAPture Reagent and RAS proteins were immobilized for each cycle, and at the end of each cycle, the sensor chip was regenerated by the regeneration solution appended to the Biotin CAPture Kit (Cytiva). Measurement was carried out at 30°C.
The resulting sensorgram was subjected to curve fitting based on a 1:1 binding model on Biacore Insight Evaluation Software or T200 Evaluation Software, and thereby the dissociation constant KD of each compound with respect to KRAS, NRAS, and HRAS was determined. […] Blank indicates a compound from which the KD value with respect to NRAS or HRAS was not obtained.

[3] = test system: human lung cancer strain NCI-H441; format: cell-based
Summary of the method: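 Proliferation was scored by […] measured after the reagent was added to cultures kept at 37°C in 5% carbon dioxide.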

[4] = target: HRAS wild-type protein (Homo sapiens, UniProt P01112); experiment: Binding to HRAS by surface plasmon resonance (SPR), KD and KD ratio to KRAS
Summary of the method: as §1

[5] = Single Cycle Kinetics, 1:1 binding model

GDP-bound NRAS wild-type protein, sequence (P01111 whole entry): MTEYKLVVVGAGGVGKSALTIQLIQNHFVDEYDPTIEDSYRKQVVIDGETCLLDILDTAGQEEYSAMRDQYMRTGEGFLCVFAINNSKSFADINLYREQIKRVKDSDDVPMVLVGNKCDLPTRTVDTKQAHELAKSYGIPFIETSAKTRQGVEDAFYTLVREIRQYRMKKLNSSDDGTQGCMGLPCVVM
HRAS wild-type protein, sequence (P01112 whole entry): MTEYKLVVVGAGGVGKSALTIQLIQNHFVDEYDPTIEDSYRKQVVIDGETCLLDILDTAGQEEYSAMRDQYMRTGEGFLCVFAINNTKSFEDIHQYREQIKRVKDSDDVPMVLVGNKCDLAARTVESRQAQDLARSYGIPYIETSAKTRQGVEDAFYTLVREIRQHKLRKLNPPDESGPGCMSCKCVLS
GDP-bound KRAS wild-type protein, sequence (P01116 1-188 isoform P01116-2): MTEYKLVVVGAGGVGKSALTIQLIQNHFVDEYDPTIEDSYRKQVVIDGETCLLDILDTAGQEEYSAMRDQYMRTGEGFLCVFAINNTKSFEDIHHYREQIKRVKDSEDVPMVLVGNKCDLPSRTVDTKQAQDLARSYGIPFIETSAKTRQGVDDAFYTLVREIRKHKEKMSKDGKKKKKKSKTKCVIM

Row | Structure (SMILES) | Kd ([2]; Single Cycle Kinetics) | IC50 [3] | other results
1 | CC[C@H](C)[C@@H]1NC(=O)[C@H](Cc2cccc(F)c2)N(C)C(=O)C[C@@H](C(=O)N2CCOCC2)N(C)C(=O)[C@H](C2CCCC2)N(C)C(=O)C2(CCCC2)NC(=O)[C@@H]2CCCN2C(=O)[C@H](CCc2ccc(C(F)(F)F)c(Cl)c2)NC(=O)CN(C)C(=O)[C@H](Cc2ccc(F)cc2)N2CCCCC[C@@H](C2=O)N(C)C(=O)CN(C)C1=O [PP0962] | 0.65 nM | 83.9 nM | NRAS /KRAS ([1]; ratio of KD for GDP-bound NRAS wild-type protein to KD for KRAS): B (a compound having 3 or more and less than 10 is denoted as B); HRAS /KRAS ([4]; ratio of KD for HRAS wild-type protein to KD for KRAS): B (a compound having 3 or more and less than 10 is denoted as B)
2 | CCO[C@@H]1C[C@H]2C(=O)NC3(CC(C)(C)C3)C(=O)N(C)[C@@H](C(CC)CC)C(=O)N(C)[C@H](C(=O)N(C)C)CC(=O)N(C)[C@@H](C(C)C)C(=O)N[C@@H]([C@@H](C)CC)C(=O)N(C)CC(=O)N(C)[C@H]3C/C=C\CCN(C3=O)[C@@H](Cc3ccc(C)cc3)C(=O)N(C)CC(=O)N[C@@H](CCc3ccc(C(F)(F)F)c(Cl)c3)C(=O)N2C1 [PP2158] | – | 25.4 nM | NRAS /KRAS ([1]; ratio of the KD value with respect to GDP-bound NRAS wild-type protein to the KD value with respect to KRAS): AA (a compound having 20 or more is denoted as AA); Kd [2, 5]: 0.79 nM; HRAS /KRAS ([4]; ratio of the KD value with respect to HRAS wild-type protein to the KD value with respect to KRAS): A (a compound having 10 or more and less than 20 is denoted as A)
3 | CCCCN1C(=O)[C@@H]2CCN2C(=O)[C@H](C)N(C)C(=O)[C@H]([C@@H](C)CC)NC(=O)[C@H](CC(C)C)N(C)C(=O)C[C@@H](C(=O)N2CCOCC2)N(C)C(=O)[C@H](C2CCCC2)N(C)C(=O)C2(CCCC2)NC(=O)[C@@H]2CCCN2C(=O)[C@H](CCc2ccc(C(F)(F)F)c(Cl)c2)NC(=O)CN(C)C(=O)[C@@H]1Cc1ccc(C)cc1 [PP0055] ([NMeL]I[NMeA][Aze][X1][Sar][hPhe(3-Cl-4-CF3)]P[Ac5c][NMeGly(cPent)][NMeD]-Morpholide; lactam N-11) | – | 3.5 nM | Kd ([2]; 1:1 binding model): 0.27 nM
4 | CCO[C@@H]1C[C@H]2C(=O)NC3(CCC3)C(=O)N(C)[C@@H](C(CC)CC)C(=O)N(C)[C@H](C(=O)N(C)C)CC(=O)N(C)[C@@H](C)C(=O)N[C@@H]([C@@H](C)CC)C(=O)N(C)CC(=O)N(C)[C@H]3C/C=C\CCN(C3=O)[C@@H](Cc3ccc(C(F)(F)F)cc3)C(=O)N(C)CC(=O)N[C@@H](CCc3ccc(C(F)(F)F)c(OC)c3)C(=O)N2C1 [PP1206] | – | – | NRAS /KRAS ([1]; ratio of KD with respect to GDP-bound NRAS wild-type protein to KD with respect to KRAS): AA (a compound having 20 or more is denoted as AA); Kd [2, 5]: 0.17 nM; HRAS /KRAS ([4]; ratio of KD with respect to HRAS wild-type protein to KD with respect to KRAS): A (a compound having 10 or more and less than 20 is denoted as A)
5 | C=CCCCC[C@H]1C(=O)N[C@@H]([C@@H](C)CC)C(=O)N(C)CC(=O)N(C)[C@H]2CCCCCN(C2=O)[C@@H](Cc2ccc(C(F)(F)F)cc2)C(=O)N(C)CC(=O)N[C@@H](CCc2cc(F)c(C(F)(F)F)c(F)c2)C(=O)N2C[C@H](OCC)C[C@H]2C(=O)N[C@](C)(CC=C)C(=O)N(C)[C@@H](C2CCCC2)C(=O)N(C)[C@H](C(=O)N2CCOCC2)CC(=O)N1C [PP0881] | 5.5 nM | 374 nM | –
6 | CC[C@H](C)[C@@H]1NC(=O)[C@H](CC(C)C)N(C)C(=O)C[C@@H](C(=O)N(C)C)N(CCC2CCCC2)C(=O)[C@H](C2CCCC2)N(C)C(=O)C2(CCCC2)NC(=O)[C@@H]2CCCN2C(=O)[C@H](CCc2ccc(C(F)(F)F)c(Cl)c2)NC(=O)CN(C)C(=O)[C@H](Cc2ccc(F)cc2)N2CCCCC[C@@H](C2=O)N(C)C(=O)CN(C)C1=O [PP0975] | 8.9 nM | 1570 nM | –
7 | CC[C@H](C)[C@@H]1NC(=O)[C@H](CC(C)C)N(C)C(=O)C[C@@H](C(=O)N2CCOCC2)N(C)C(=O)[C@H](C2CCCC2)N(C)C(=O)C2(CCC2)NC(=O)[C@@H]2[C@@H](OCCC(F)(F)F)CCN2C(=O)[C@H](CCc2cc(F)c(C(F)(F)F)c(F)c2)NC(=O)CN(C)C(=O)[C@H](Cc2ccc(C(F)(F)F)cc2)N2CCCCC[C@@H](C2=O)N(C)C(=O)CN(C)C1=O [PP1008] | 1.1 nM | 102 nM | –
